Data on three compounds can be found in US6861448B2, “NAD synthetase inhibitors and uses thereof” (priority 1998, dated 2005).

The test system of series [1] is M. flavescens. The experiment in a line: microbe, parasite or virus in culture. The following applies: Mycolicibacterium flavescens; read-out: Minimal Inhibitory Concentration (MIC), M. flavescens. It counts as cell-based.
Series [2] concerns rabbit primary renal cells (RPRC). The experiment in a line: Cytotoxicity in rabbit primary renal cells (annexin V / PI flow cytometry). The series is classed as cell-based. The following applies: 24 hr, mean ± SEM; for % CELLULAR NECROSIS (RPRC): at 300 μM; for % APOPTOSIS (RPRC): at peak effect (30 μM). On the procedure: Cytotoxicity in Rabbit Primary Renal Cells
Isolation of Proximal Tubules and Culture Conditions
Rabbit renal proximal tubules were isolated using the iron oxide perfusion method and grown in 35-mm tissue culture dishes under improved conditions. The cell culture medium was a 1:1 mixture of DMEM/Ham's F-12 (without D-glucose, phenol red, or sodium pyruvate) supplemented with 15 mM HEPES buffer, 2.5 mM L-gluatmine, 1 μM pyridoxine HCL, 15 mM sodium bicarbonate, and 6 mM lactate. Hydrocortisone (50 nM), selenium (5 ng/mL), human transferrin (5 μg/mL), bovine insulin (10 nM) and L-ascorbic acid-2-phosphate (50 μM) were added to fresh culture medium immediately prior to daily media change.
All numbered compounds were diluted in methanol and the final concentration of methanol in RPRC was less then 0.1% (v/v).
Measurement of RPRC Death
Cell death was monitored in RPRC by assessment of both annexin V and PI staining using flow cytometry. Briefly, RPRC were exposed to the indicated concentrations of compounds for 24 hr. Media was removed and RPRC washed twice with phosphate-buffered saline (PBS) and incubated in a binding buffer (10 mM HEPES, 140 mM NaCL, 5 mM KCL, 1 mM MgCl2, 1.8 mM CaCl2, pH=7.4) containing annexin V-FITC (1 μmol) and PI (25 μg/mL). After a 10 min incubation, RPRC were washed three times in the binding buffer and were released from the monolayers by gentle scrapping with a rubber policeman. Annexin V and PI staining were measured using a BectonDickson FacsCalibur flow cytometer (San Jose, Calif.). An equal number of cells (10,000) were counted for sample and apoptotic cells were defined as those that stained positive for annexin V-FITC only. RPRC undergoing necrotic cell death stained for PI only.
RPRC isolated from one rabbit represented one experiment (n=1). Data were analyzed and are reported as means±standard error of the mean of at least 3 separate experiments.

Series [3] concerns S. aureus (MCR). The experiment in a line: microbe, parasite or virus in culture. The series is classed as cell-based. The following applies: for MIC: Staphylococcus aureus, read-out: Minimal Inhibitory Concentration (MIC), S. aureus (MCR), multiple values = two or more tests.
In series [4] the test system is A. niger. The experiment in a line: MIC test, fungal growth inhibition. It counts as cell-based. To be noted: Aspergillus niger, read-out: Potency to inhibit growth, A. niger (MIC). As for the experimental part:
(§1) Antimicrobial Testing (P. aeruginosa, E. coli, B. subtilis, S. aureus, S. aureus (MCR), A. niger and M. flavescens.)
(§2) The MIC test procedures conformed to the present protocol from the National Committee for Clinical Laboratory Standards (NCCLS), and were designed to provide basic antimicrobial data on compounds based on the MIC of the active component.
(§3) The test compounds were solubilized, diluted, and pipetted in duplicate into 10 mL sterile culture tubes and dried under vacuum.
(§4) Challenge organisms, specified were grown overnight at 37° C. in the appropriate medium (i.e., Mueller-Hinton Broth). These pure broth cultures were diluted 1:1,000 and 2.0 mL were added to the test compound tubes.
(§5) Appropriate media controls, challenge organism viability controls, and antibiotic control dilutions (i.e., ampicillin and nystatin), were prepared in the same manner as the test compounds and run against the challenge organisms.

The subject of series [5] is Murine 3T3 cells. The experiment in a line: Cytotoxicity in murine 3T3 cells (LDH release). The series is classed as cell-based. To be noted: at 100 μM, 20 hrs. On the procedure: (§6) Prior to conducting the assay, cell number, serum concentration, and medium conditions were optimized. Then using the assay conditions as described below, cells were seeded on day 1 and allowed to adhere for at least 1 hour. […] The initial solubilization of the test articles was in 50:50 methanol:water (v/v). […] On day 1, compounds 1439 and 1364 required sonication before solubility was reached). The cells plus compound were incubated overnight at 37° C., under a 5% CO2/[…] atmosphere. On day 2, the cells in the positive control wells were lysed with 0.9% Triton X-100 for 45 minutes to establish maximum levels of LDH release. The plates were centrifuged at 250× g for 5 minutes, the supernatants transferred to a new assay plate, and the LDH was measured. The assay plates were read at OD 490 nm.
(Release of lactate dehydrogenase indicates damage to the cell membrane.)

For series [6], the system named is P aeruginosa. The experiment in a line: MIC test (NCCLS broth dilution), growth inhibition. The series is classed as cell-based. To be noted: Pseudomonas aeruginosa, read-out: Potency to inhibit growth, P aeruginosa (MIC). As for the experimental part: as §1, §3, §4, §5
(Broth dilution looks for growth in wells or tubes with falling amounts of substance.)

Series [7] concerns E. coli. Put plainly: MIC test (NCCLS broth dilution), growth inhibition. The following applies: Escherichia coli. The series is classed as cell-based. On the procedure:
as §1, §3, §4, §5

Series [8] addresses NAD synthetase (Bacillus subtilis, UniProt P08164). The experiment in a line: NAD synthetase coupled enzyme assay. The series is classed as biochemical. In outline:
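NAD formed by B. subtilis NAD synthetase was converted to NADH by coupled alcohol dehydrogenase. NADH was read both by absorbance at 340 nm and by fluorescence (ex 320/em 460 nm). Controls covered inhibitor background, precipitation and ADH inhibition.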

The nature of series [9]: Solubilization of test articles in methanol:water. The series is classed as physicochemical. The following applies: 50:50 methanol:water (v/v). On the procedure: as §6
In series [10] the test system is C. albicans. The experiment in a line: MIC test, fungal growth inhibition. The series is classed as cell-based. To be noted: Candida albicans, in vitro; read-out: Potency to inhibit growth, C. albicans (MIC). On the procedure:
as §2, §3, §4, §5

Series [11] has as its system Bacillus anthracis Sterne 34F2. The experiment in a line: microbe, parasite or virus in culture. It counts as cell-based. To be noted: Bacillus anthracis.
The test system of series [12] is B. subtilis. Put plainly: microbe, parasite or virus in culture. It counts as cell-based. The following applies: Bacillus subtilis, multiple values = two or more tests; read-out: Minimal Inhibitory Concentration (MIC), B. subtilis.
Series [13] has as its system S. aureus. Put plainly: microbe, parasite or virus in culture. To be noted: Staphylococcus aureus, multiple values = two or more tests; read-out: Minimal Inhibitory Concentration (MIC), S. aureus. It counts as cell-based.

Counter-ions that a name gives are not always drawn. Like-named read-outs stand apart in the source and are kept apart here. Some results are limits rather than exact numbers.

Chain of NAD synthetase (P08164 whole entry): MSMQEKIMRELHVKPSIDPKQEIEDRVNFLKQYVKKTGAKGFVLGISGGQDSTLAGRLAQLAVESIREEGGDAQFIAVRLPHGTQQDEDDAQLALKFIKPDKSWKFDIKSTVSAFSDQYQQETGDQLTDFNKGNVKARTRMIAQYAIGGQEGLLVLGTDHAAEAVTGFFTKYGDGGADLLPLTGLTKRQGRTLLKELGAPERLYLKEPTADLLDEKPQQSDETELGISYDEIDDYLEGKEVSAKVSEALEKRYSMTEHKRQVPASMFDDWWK

As for `C[N+](C)(C)C(Cc1ccccc1)C(=O)NCCCCCCCCOc1ccc(OCc2ccccc2)cc1` (stereo not drawn) [Compound 1364], the MIC in series [1] was more than 50 µg/mL; in series [3], less than 0.78 µg/mL; in series [4] it was more than 50 µg/mL; in series [6] it was more than 50 µg/mL; in series [7] (read-out: Potency to inhibit growth, E. coli (MIC), in vitro) it was less than 50 µg/mL. In addition, the “% CELLULAR NECROSIS (RPRC)” value in series [2] came to 63 ± 2%. The “% APOPTOSIS (RPRC)” value in series [2] stood at 15 ± 3%. Also, in series [3] (multiple values = two or more tests), the “Minimal Inhibitory Concentration (MIC), S. aureus (MCR)” value was less than 1.56 µg/mL. Moreover, the “% CELLULAR NECROSIS (FIBROBLASTS)” value in series [5] was determined as 62%. In addition, half-maximal inhibition in [8] (IC50) required 48.4 µM. Moreover, in [9], the “solubility of test article in methanol:water” value was “went into solution on day 1, but precipitated on day 2”.

For the compound `N=C(N)N[C@@H](Cc1ccccc1)C(=O)NCCCCCCCCOc1ccc(OCc2ccccc2)cc1` (as salt: trifluoroacetic acid salt) [Compound 1503], the melting point is 108 to 113 °C.

As for `C[N+](C)(C)[C@H](COCCCCCCCCOc1ccc(OCc2ccccc2)cc1)Cc1ccccc1` [Compound 1439], the MIC is less than 12.5 µg/mL in [1]; less than 3.13 µg/mL in series [10]; 4 µg/mL in [11] (STERNE34F2, read-out: approximate MIC, B. anthracis (first value)); 4 µg/mL in series [11] (STERNE34F2, read-out: approximate MIC, B. anthracis (second value)); less than 1.56 µg/mL in series [3]; less than 25 µg/mL in [4] (in vitro). Further, the MIC in series [6] (in vitro) was more than 50 µg/mL; in series [7] (in vitro, read-out: Potency to inhibit growth, E. coli (MIC)), less than 12.5 µg/mL; in series [12], less than 0.39 µg/mL; in series [13] it was less than 0.78 µg/mL. In addition, the “% CELLULAR NECROSIS (RPRC)” value in [2] amounted to 62 ± 2%. The “% APOPTOSIS (RPRC)” value in series [2] is reported as 10 ± 1%. Besides, the “% CELLULAR NECROSIS (FIBROBLASTS)” value in [5] was determined as 73%. Besides, half-maximal inhibition in series [8] (IC50) required 22.7 µM. The “solubility of test article in methanol:water” value in [9] is listed as “never went into solution at 50% organic”.

The term IC50 denotes the concentration at which inhibition is half-maximal. The low end stands for greater potency in that assay, the high end for weaker potency in that assay. As a reminder, the melting point is the temperature, or range, at which the solid turns liquid.
